Laboratory results: US4670469A, “Hydroxamic acid and pharmaceutical preparations containing the same” (VEB Arzneimittelwerk Dresden, priority 1983, dated 1987)
Where “and” joins values, the source holds several entries; their conditions need not be identical. Identical values can stand only once.

What was measured:
[1] = tested on: guinea pig lung strips; assay: Activity on the basal tones of guinea pig lung strips; settings: Cavia porcellus, basal tone, cumulative dose-activity curve
Excerpt: (§1) The testing of the compounds for antiasthmatic activity follows on isolated lung strips and isolated tracheal rings from guinea pigs according to measuring methods known from the literature (supra) in modified form. The measurements follow in thermostatically controlled organ bath, isotonically using a contraction measuring arrangement with lift receiver, measuring coil, measuring amplifier (inductive measurement with the aid of a high frequency resonant circuit). The gasification follows with air. The suspension solution has the following composition: 39.46 g NaCl, 2.2 g KCl, 6.07 g Tris, 1.0 g CaCl2, 9.9 g glucose, 1.0 ml saturated MgCl2 -solution, 43 ml 1N HCl; pH 7.4.
(c) Activity on the basal tones of guinea pig lung strips.
Increasing concentrations of the active substance are added to the suspension medium. There occurs a dilatation, which is cumulatively measured. From the Dose-Activity-curves are provided the following parameters: […]

[2] = tested on: guinea pig trachia; assay: Carbachol-induced spasm of guinea pig trachea; settings: Cavia porcellus; spasm triggered by 3.9 μM carbachol; read-out: active substance concentration at which strong to very strong dilatation was clearly determinable
Excerpt: as §1
(b) Activity on the carbachol-induced spasm of guinea pig trachia
The spasms are triggered by 3.9 μM carbachol.

[3] = tested on: carrageenin edema of rat paws; assay: Inhibition of carrageenin edema of rat paws; assay type: in vivo; settings: 200 mg/kg perorally, rats
Procedure: The inflammation-inhibiting activity of the compounds of Formula I is expressed, among others, by an inhibition of carrageenin edema in rat paws (see Example 9).
The carrageenin edema is employed in international literature as a model system for inflammation-triggering (prophlogistic) procedures, and offers the possibility of in vivo testing of compounds for inflammation-inhibiting (antiphlogistic) activity.
2(2'-naphthoxy)-acethydroxamic acid is supplied to 10 rats perorally in a dose of 200 mg/kg body weight with simultaneous delivery of 0.1 ml 1% carrageenin solution per animal. The extent of the paw edema is measured hourly after the application, and compared with the control group.

[4] = tested on: histamine-induced bronchoconstriction in guinea pigs; assay: Inhibition of histamine-induced bronchoconstriction in guinea pigs in vivo; settings: individual animals; second histamine injection; listed as SHAM
[5] = target: T1, arachidonate-lipoxygenase of human thrombocyte (Homo sapiens, UniProt P18054); assay: Arachidonate-lipoxygenase activity of microsome-free lysate of human thrombocyte concentrates; assay type: biochemical; settings: 0.25 mM
T1 construct: microsome-free lysate of human thrombocyte concentrates; from tissue; host or cells: human thrombocyte (platelet) concentrates, microsome-free lysate
Procedure: The inhibition of thrombocyte aggregation is likewise ascribed to the inhibition of lipoxygenase in the cells. It has thus been shown that the arachidonate-lipoxygenase activity of a microsome-free lysate of human thrombocyte concentrates is inhibited to the extent of 100% by means of 0.25 mM salicylhydroxamic acid. Moreover, it has been shown that also a series of further lipoxygenases are inhibited by means of the here described hydroxamic acids. The lipoxygenase from soybeans reacts the most insensitive, i.e. it is inhibited by means of 1 mM salicylhydroxamic acid at pH 7.4 to an extent of 60% and by means of 0.4 mM 2-hydroxy-1-napthylhydroxamic acid to an extent of 54%. In contrast, for the lipoxygenase from peas which come closer in their characteristics to human lipoxygenase, the following I50 -values are provided: salicyl hydroxamic acid, 5 μM, 2-hydroxy-1-napthylhydroxamic acid, 2 μM, 2(2'-napthoxy)-acethydroxamic acid, 2 μM. Moreover it has been shown that the formation lipoxygenase products of arachidonic acid in in vitro cultivated aorta endothelial cells of calves is hindered through 0.1 mM 2-hydroxy-1-napthylhydroxamic acids.

[6] = tested on: histamine-induced bronchoconstriction in guinea pigs; assay: Inhibition of histamine-induced bronchoconstriction in guinea pigs in vivo
Procedure: Accordingly, this complete animal model is called upon for further experimental determination of the anti-asthmatic activity of compounds of Formula I. The following describes a representative experiment with salicylhydroxamic acid (SHAM) in […] male guinea pigs. SHAM is applied in a dose of 95 mg/kg body weight; this dose lies a power of ten below the determined values for acute toxicity (LD50 -value).
After urethane narcosis, a flexible catheter is introduced into the V. jugularis dext. of each animal. After a tracheotomy a tracheotubular needle is inserted for respiration. Then, after muscle relaxation with Pavulon, mechanical respiration follows in a Body-Plethysmograph (16 min^-1, I/E=1/1, pI =20 cmH2 O; Muller et al., 1976; Oddoy et al., 1982).
Over a tubular flesh needle at the outwardly led tracheotubular needle, the breath volume per draw of breath is measured by means of a pneumotachograph. The values are separately integrated and registered with a light recorder.
After 3 minutes calm breathing with registration of the parameter, three animals are dosed each with 2.5 ml SHAM-solution (isotonic, 37° C., 0.1M), i.v. (SHAM was dissolved in water directly before the test by heating, and the solution was cooled quickly in an 37° C. water bath.)
After 5 minutes further observation there follows the delivery of 5 μg/kg KM Histamine i.v. for providing a submaximal bronchospasm. After a further 5 minutes, 50 μg/kg KM Histamine are injected i.v. This leads according to experience to a fast, complete bronchial spasm ("silent chest"). After registration of the breath volume over a further 5 minutes, the test is completed.
In 3 animals serving as control group, with otherwise analogous procedure, instead of SHAM, 2.5 ml isotonic NaCl-solution are applied.
The calm- and the 5-minute values are mean values (in cm amplitude) from each 5 draws of breath.
The values after the Histamine injections represent the draw of breath having the smallest volume (3rd to 5th draw of breath after injection).

[7] = individual animals, draw of breath having the smallest volume, listed as SHAM
[8] = individual animals, listed as SHAM

T1 sequence (P18054 whole entry): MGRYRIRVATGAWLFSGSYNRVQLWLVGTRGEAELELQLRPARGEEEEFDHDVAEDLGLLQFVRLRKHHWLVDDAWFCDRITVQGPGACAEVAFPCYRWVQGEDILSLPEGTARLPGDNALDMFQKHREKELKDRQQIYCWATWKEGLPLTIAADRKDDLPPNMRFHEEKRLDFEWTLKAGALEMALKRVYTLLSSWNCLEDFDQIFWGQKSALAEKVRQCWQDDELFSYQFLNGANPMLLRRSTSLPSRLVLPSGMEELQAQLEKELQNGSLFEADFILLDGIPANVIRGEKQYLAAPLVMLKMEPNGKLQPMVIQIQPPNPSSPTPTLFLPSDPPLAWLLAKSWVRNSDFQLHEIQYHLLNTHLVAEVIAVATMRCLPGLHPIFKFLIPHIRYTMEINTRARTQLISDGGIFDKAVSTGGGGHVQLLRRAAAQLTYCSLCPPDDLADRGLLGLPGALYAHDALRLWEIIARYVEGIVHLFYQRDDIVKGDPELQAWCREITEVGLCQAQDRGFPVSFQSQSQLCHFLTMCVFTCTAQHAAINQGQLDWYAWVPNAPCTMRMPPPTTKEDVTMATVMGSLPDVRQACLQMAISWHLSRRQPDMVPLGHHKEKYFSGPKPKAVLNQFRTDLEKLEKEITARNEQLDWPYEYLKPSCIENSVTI

In the case of O=C(COc1ccc2ccccc2c1)NO [2(2'-naphthoxy)-acethydroxamic acid], the EC50 ([1]; read-out: ED50 (dilatation)) is reported as 14 µM, the EC84 ([1]; read-out: ED84 (dilatation)) is reported as 27 µM and the minimal effective concentration [2] is reported as 50 µM. For the same molecule, the “Restraint (%) of carrageenin edema” value ([3]; 1 h) was 27.3%, the “Restraint (%) of carrageenin edema” value ([3]; 2 h) was 27.3% and the “Restraint (%) of carrageenin edema” value ([3]; 3 h) was 20.2%. The “Restraint (%) of carrageenin edema” value ([3]; 4 h) was 35.3% and the “Restraint (%) of carrageenin edema” value ([3]; 5 h) was 21.4%.

For O=C(NO)c1ccccc1O [salicylhydroxamic acid], the “volume change, after 5 μg/kg Histamine” value [4] was -49% and -95.7% and -62%, the inhibition at 250 µM [5] was 100% and the “volume change, after 5 min” value ([6]; average value for n = 3, 5 min after first histamine injection) was “+7%”. For the same molecule, the “volume change, after 5 min” value ([6]; average value for n = 3, 5 min after second histamine injection) was -20%, the “volume change, after 5 min” value ([6]; average value for n = 3, after SHAM i.v.) was “+7.7%” and the “volume change, after 5 μg/kg Histamine” value ([6]; average value for n = 3, first histamine injection) was -18%. For the same molecule, the “volume change, after 5 μg/kg Histamine” value ([6]; average value for n = 3, second histamine injection) was -68.9%, the “breath volume after i.v. injection” value ([6]; before histamine) was “insignificant rise” and the “V-5 min after SHAM (breath volume change)” value ([6]; individual animals, 2.5 ml 0.1M SHAM i.v., cm amplitude) was “+0.1 cm and +0.2 cm and +0.45 cm”. For the same molecule, the “volume change, after 5 min” value ([6]; individual animals, 5 min after first histamine injection, listed as SHAM) was “+5% and +10% and +7.2%”, the “volume change, after 5 min” value ([6]; individual animals, 5 min after second histamine injection, listed as SHAM) was -04% and -22% and -35% and the “V after 5 μg Hist. i.v.” value [6, 7] was -0.4 cm and -2.2 cm. The “V after 50 μg Hist. i.v.” value [6, 7] was -2.4 cm and -4.4 cm and -1.6 cm, the “volume change, after 5 μg/kg Histamine” value ([6]; individual animals, first histamine injection, listed as SHAM) was -8% and -48% and 0% and the “V-5 min thereafter (after 5 μg Hist.)” value [6, 8] was “+0.26 cm and +0.48 cm and +0.19 cm”. The “V-5 min thereafter (after 50 μg Hist.)” value [6, 8] was -0.2 cm and -1.0 cm and -0.9 cm, the “volume change, after 5 min” value ([6]; individual animals, percent of the starting draw volume, after SHAM i.v.) was “+2% and +4% and +17%” and the “bronchial spasm after histamine injections” value ([6]; pre-treated animals versus control group) was “smaller bronchial spasm than the animals of the control group”. For the same molecule, the “spontaneous regression of histamine induced bronchial spasm” value ([6]; treated animals versus control group) was “more quickly and more extensively than in the control group”.
